Activity calls are given as the source filed them.
Assays:
[1] = biological target: Melanin-concentrating hormone receptor 1 (Homo sapiens, UniProt Q99705); assay: Late-stage fluorescence-based counterscreen for antagonists of the G-protein coupled receptor 7 (GPR7): cell-based dose response assay to identify antagonists of the melanin-concentrating hormone receptor 1 (MCHR1) Set 6.; type: functional
[2] = biological target: Neuropeptides B/W receptor type 1 (Homo sapiens, UniProt P48145); assay: human NPBW1 receptor blockade, IC50 – cell-based, fluorescence, dose response, set 6, late-stage follow-up (AID 588583); type: functional
[3] = biological target: Focal adhesion kinase 1 (Homo sapiens, UniProt Q05397); type: functional;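 also: measured as one member of a kinome panel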
[4] = biological target: Aurora kinase A (Homo sapiens, UniProt O14965); type: functional;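 also: value from the Navigating the Kinome kinase panel profiling, panel entry STK6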
Sequence of Aurora kinase A (O14965 whole entry): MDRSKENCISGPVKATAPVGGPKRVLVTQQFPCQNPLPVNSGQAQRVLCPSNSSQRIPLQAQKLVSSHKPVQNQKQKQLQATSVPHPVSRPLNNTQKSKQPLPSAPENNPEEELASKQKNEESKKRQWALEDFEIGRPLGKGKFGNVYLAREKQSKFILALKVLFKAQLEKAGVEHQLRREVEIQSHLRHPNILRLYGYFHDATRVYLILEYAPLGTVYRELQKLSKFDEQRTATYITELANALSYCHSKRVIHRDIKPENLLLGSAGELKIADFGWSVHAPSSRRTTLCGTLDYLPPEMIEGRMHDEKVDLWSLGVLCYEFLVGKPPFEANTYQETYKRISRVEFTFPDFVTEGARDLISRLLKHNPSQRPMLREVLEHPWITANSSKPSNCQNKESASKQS

[5] = biological target: Aurora kinase B (Homo sapiens, UniProt Q96GD4); type: functional
Sequence of Aurora kinase B (Q96GD4 whole entry): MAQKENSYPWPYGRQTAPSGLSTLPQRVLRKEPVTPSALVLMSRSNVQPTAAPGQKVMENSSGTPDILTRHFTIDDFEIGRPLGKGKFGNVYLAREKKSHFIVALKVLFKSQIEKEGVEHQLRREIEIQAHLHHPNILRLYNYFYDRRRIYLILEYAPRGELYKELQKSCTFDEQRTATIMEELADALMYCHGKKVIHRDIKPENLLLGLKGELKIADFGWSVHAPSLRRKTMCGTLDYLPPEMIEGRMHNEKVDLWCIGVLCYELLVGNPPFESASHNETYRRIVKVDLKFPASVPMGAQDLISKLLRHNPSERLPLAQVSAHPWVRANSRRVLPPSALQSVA

[6] = biological target: ALK tyrosine kinase receptor (Homo sapiens, UniProt Q9UM73); type: functional;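 also: ALK tested as one member of a kinase panel screen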
Sequence of ALK tyrosine kinase receptor (Q9UM73 whole entry): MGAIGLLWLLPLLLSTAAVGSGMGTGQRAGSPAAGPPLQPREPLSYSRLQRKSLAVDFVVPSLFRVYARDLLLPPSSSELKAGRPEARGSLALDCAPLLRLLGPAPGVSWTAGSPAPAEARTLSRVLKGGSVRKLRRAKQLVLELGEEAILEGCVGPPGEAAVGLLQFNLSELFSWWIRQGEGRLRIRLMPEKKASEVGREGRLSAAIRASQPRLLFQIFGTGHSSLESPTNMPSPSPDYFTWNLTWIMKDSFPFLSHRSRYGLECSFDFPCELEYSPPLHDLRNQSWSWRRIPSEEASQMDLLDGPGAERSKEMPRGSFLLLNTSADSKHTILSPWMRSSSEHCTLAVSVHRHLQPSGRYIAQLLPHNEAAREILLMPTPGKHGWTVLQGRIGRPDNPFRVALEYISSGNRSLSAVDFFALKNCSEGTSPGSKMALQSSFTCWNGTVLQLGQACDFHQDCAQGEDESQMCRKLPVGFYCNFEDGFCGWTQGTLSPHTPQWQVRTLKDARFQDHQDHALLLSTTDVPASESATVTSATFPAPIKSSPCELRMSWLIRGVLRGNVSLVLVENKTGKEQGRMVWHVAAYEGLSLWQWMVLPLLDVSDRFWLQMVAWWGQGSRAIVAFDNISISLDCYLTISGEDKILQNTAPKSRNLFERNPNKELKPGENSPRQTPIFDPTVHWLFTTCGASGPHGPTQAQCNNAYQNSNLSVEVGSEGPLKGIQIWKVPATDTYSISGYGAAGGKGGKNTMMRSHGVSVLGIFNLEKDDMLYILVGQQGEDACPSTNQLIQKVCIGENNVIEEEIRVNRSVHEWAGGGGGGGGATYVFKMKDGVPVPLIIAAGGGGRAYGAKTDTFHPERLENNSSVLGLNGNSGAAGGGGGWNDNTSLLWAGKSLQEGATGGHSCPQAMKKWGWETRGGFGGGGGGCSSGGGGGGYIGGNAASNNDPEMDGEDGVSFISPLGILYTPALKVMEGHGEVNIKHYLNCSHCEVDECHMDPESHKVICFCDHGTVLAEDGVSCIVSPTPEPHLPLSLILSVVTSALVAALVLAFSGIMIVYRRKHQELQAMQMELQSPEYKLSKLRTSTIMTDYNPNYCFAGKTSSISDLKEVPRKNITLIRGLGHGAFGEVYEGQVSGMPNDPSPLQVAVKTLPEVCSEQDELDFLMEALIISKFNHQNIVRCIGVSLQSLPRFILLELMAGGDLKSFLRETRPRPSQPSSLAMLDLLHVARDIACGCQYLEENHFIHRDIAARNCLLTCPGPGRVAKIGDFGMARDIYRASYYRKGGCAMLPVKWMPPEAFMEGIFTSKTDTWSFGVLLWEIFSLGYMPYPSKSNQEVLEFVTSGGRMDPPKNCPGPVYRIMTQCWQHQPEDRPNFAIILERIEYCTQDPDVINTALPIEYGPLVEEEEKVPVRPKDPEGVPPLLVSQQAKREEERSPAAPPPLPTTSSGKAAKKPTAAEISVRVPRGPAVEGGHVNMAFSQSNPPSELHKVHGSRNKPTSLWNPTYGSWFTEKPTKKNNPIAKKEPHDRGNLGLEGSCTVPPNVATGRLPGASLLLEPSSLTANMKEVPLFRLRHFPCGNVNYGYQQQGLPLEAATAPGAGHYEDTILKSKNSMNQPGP

[7] = biological target: Cyclin-dependent kinase 5/CDK5 activator 1 (Homo sapiens, UniProt Q00535); assay: inhibitors of human CDK5 activity – biochemical, microfluidic mobility shift, dry powder, set 2, selectivity assay for GSK3beta inhibitor project, dose response (AID 623979); type: functional
[8] = biological target: Glycogen synthase kinase-3 alpha (Homo sapiens, UniProt P49840); assay: GSK3A enzyme blockers, homolog specificity check – biochemical, microfluidics, dry powder samples, set 2, selectivity assay for GSK3beta inhibitor project, dose response (AID 623978); type: functional
Sequence of Glycogen synthase kinase-3 alpha (P49840 whole entry): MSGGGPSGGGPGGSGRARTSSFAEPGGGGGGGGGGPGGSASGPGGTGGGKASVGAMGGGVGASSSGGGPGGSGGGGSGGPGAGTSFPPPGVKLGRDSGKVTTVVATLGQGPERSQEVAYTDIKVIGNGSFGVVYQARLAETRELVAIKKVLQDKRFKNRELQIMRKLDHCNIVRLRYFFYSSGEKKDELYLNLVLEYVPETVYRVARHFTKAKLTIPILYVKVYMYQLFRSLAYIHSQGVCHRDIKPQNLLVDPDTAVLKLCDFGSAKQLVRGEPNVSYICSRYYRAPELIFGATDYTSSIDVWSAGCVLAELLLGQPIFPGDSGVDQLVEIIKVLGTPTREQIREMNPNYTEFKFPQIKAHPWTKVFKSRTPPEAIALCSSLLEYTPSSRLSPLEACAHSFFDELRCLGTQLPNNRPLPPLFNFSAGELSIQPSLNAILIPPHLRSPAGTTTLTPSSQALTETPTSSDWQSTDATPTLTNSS

[9] = alpha-synuclein stem-loop luciferase translation blockers – H4 neuroglioma cells, luminescence, confirmation (AID 1988); type: functional, cell-based
[10] = luciferase reporter signal suppression in cells – H4 neuroglioma cells, luminescence, dose response (AID 1990); type: functional, cell-based
[11] = biological target: Glycogen synthase kinase-3 beta (Homo sapiens, UniProt P49841); assay: inhibition of human GSK3B activity – biochemical, microfluidics, dry powder samples, set 2, dose response (AID 623989); type: functional
[12] = Luminescence Cell-Based Dose Response HTS to Identify Inhibitors of 5'UTR Stem-Loop Driven Prion Protein mRNA Translation in H4 Neuroglioblastoma Cells. [Related pubchem assays: 1827 (Project Summary), 1813 (Primary HTS)]; type: functional
[13] = biological target: DNA dC->dU-editing enzyme APOBEC-3G (Homo sapiens, UniProt Q9HC16); assay: SAR analysis of small molecule inhibitors of APOBEC3G DNA Deaminase via a fluorescence-based single-stranded DNA deaminase assay - Set 2.; type: functional; conditions: read-out: IC50_Mean
Sequence of DNA dC->dU-editing enzyme APOBEC-3G (Q9HC16 whole entry): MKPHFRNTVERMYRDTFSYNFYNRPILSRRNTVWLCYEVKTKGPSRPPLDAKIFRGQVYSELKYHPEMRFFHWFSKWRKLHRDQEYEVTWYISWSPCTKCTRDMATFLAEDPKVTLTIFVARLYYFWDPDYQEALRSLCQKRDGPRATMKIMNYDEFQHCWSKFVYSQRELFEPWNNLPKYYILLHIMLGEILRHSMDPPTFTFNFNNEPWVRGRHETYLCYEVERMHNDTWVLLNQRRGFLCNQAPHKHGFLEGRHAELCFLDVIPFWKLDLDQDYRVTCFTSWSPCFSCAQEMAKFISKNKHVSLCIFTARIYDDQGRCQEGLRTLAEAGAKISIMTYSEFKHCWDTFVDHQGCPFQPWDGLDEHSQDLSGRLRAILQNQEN

[14] = biological target: DNA dC->dU-editing enzyme APOBEC-3A (Homo sapiens, UniProt P31941); assay: SAR analysis of small molecule inhibitors of APOBEC3A DNA Deaminase via a fluorescence-based single-stranded DNA deaminase assay - Set 2.; type: functional; conditions: read-out: IC50_Mean
Sequence of DNA dC->dU-editing enzyme APOBEC-3A (P31941 whole entry): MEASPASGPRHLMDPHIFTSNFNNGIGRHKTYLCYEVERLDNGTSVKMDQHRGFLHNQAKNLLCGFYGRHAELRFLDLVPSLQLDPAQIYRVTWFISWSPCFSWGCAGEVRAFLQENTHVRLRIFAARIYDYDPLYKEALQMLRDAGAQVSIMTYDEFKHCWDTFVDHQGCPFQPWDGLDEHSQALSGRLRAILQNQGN

[15] = system: INS1; assay: INS-1E survival protection against cytokine death – cell-based, luminescence, retest, dose response (AID 449756); type: functional; conditions: Rattus norvegicus;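 also: cell death triggered by IL-1 beta plus TNF-alpha plus IFN-gamma mixture; protective hits raise ATP signal compared with cytokine alone wells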
[16] = biological target: ATP-dependent molecular chaperone HSP82 (Candida albicans (strain WO-1) (Yeast), UniProt C4YTQ8); assay: steroid-induced GRE reporter decrease in yeast – S. cerevisiae, luminescence, Hsp90 inhibitor project, dose response (AID 2400); type: functional, cell-based;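 also: beta-galactosidase luminescence from glucocorticoid response element reporter as proxy for Hsp90 function; inhibitor potency where signal loss means Hsp90 inhibition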
Sequence of ATP-dependent molecular chaperone HSP82 (C4YTQ8 whole entry): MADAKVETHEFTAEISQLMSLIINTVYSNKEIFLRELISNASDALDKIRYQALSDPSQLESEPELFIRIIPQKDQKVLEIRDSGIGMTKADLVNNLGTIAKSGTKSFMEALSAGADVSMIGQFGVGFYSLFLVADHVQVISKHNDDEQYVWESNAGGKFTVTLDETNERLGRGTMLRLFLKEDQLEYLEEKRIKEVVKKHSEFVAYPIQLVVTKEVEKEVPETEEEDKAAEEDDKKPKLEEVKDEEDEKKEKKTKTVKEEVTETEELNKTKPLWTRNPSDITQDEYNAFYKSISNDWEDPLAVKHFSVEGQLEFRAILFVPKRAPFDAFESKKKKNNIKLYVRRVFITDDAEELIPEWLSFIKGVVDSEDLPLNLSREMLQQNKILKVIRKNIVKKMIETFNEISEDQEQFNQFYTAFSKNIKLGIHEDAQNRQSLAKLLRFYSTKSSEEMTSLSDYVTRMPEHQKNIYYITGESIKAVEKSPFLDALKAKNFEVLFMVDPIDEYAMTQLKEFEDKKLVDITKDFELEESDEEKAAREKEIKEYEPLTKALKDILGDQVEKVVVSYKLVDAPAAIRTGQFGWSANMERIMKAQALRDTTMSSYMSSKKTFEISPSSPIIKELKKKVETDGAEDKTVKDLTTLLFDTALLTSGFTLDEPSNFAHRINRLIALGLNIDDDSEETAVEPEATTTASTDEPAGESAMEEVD

[17] = NIH-3T3 fibroblast cytotoxicity, dose response, cytotoxicity control, cell-based, fluorescence, Alamar Blue, secondary assay (AID 2327); type: functional;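 also: NIH-3T3 mouse fibroblasts cultured with fluconazole at 8 µg/mL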
[18] = biological target: Serine/threonine-protein phosphatase (Candida dubliniensis (strain CD36 / CBS 7987 / NCPF 3949 / NRRLY-17841) (Yeast), UniProt B9W6M3); assay: blockers of CaCl2-induced CDRE-lacZ signaling – S. cerevisiae, luminescence, secondary, dose response (AID 2388); type: functional, cell-based;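 also: yeast reporter cells carrying a calcineurin-responsive lacZ construct stimulated with calcium chloride; luminescent beta-galactosidase reporter signal in whole cells rather than isolated phosphatase activity; potency for inhibition where a drop in reporter signal means calcineurin blockade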
Sequence of Serine/threonine-protein phosphatase (B9W6M3 whole entry): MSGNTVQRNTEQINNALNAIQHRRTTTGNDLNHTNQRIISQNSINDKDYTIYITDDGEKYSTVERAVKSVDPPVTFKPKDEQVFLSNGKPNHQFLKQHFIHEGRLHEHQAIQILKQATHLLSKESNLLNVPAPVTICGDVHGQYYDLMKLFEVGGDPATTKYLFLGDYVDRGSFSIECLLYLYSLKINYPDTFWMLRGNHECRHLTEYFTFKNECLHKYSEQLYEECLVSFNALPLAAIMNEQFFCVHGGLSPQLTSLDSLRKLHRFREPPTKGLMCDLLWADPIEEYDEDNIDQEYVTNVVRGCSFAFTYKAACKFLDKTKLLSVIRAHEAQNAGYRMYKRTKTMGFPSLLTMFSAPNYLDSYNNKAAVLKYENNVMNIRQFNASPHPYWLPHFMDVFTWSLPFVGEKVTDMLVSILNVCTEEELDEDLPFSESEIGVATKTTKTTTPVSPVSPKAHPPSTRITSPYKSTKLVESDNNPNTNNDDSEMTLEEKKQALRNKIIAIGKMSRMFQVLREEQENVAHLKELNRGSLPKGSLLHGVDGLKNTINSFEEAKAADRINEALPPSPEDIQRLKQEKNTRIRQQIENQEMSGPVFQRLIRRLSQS

[19] = fluconazole-exposed Candida albicans growth modulators – fluorescence, retest, confirmation (AID 2467); type: functional, cell-based

**Q.** Which IC50 [1] does the source give for COc1ccc(Oc2c(Cl)cnn(CC(=O)Nc3ccccc3-c3ccccc3)c2=O)cc1 here?
**A.** 1.14 µM (active)

**Q.** What about the IC50 [2] of the same compound?
**A.** 1.14 µM (active)

**Q.** Which Ki [3] does the source give for Cc1cc(N2CCOCC2)cc2[nH]c(-c3c(NCC(O)c4ccccc4)cc[nH]c3=O)nc12 (configuration not stated) here?
**A.** 0.0316 µM (active)

**Q.** And the Ki [4]?
**A.** 0.251 µM (active)

**Q.** And the Ki [5]?
**A.** 0.0501 µM (active)

**Q.** What about the Ki [6] of the same compound?
**A.** 0.0794 µM (active)

**Q.** For CCOc1cccc(-c2c(C(=O)N/N=C/c3sccc3C)nnn2-c2nonc2N)c1, which AC50 [7] is on record?
**A.** 4.07 µM (active)

**Q.** And the AC50 [8]?
**A.** 0.474 µM (active)

**Q.** What about the EC50 [9] of the same compound?
**A.** 82.2 µM (active)

**Q.** What about the EC50 [10] of the same compound?
**A.** > 120 µM (not active)

**Q.** What about the AC50 [11] of the same compound?
**A.** 0.197 µM (active)

**Q.** And the EC50 [12]?
**A.** 15.6 µM (active)

**Q.** For Cc1ccc(-c2csc3nnc(SCCOc4ccccc4)n23)cc1, which IC50 [13] is on record?
**A.** > 99 µM (inactive)

**Q.** What about the IC50 [14] of the same compound?
**A.** > 99 µM (inactive)

**Q.** With C/C(=N\NC(=O)c1cc(C2CC2)nc2ccccc12)c1ccc(O)cc1O as the compound, how does the AC50 [15] read?
**A.** 1.01 µM (active)

**Q.** What about the EC50 [9] of the same compound?
**A.** 5.57 µM (inconclusive)

**Q.** What about the EC50 [10] of the same compound?
**A.** 11.7 µM (active)

**Q.** What about the EC50 [16] of the same compound?
**A.** > 160 µM (inactive)

**Q.** What about the EC50 [17] of the same compound?
**A.** 12.9 µM (inconclusive)

**Q.** And the EC50 [12]?
**A.** 11.4 µM (active)

**Q.** What about the EC50 [18] of the same compound?
**A.** > 180 µM (inactive)

**Q.** What about the EC50 [19] of the same compound?
**A.** 2.46 µM (active)
